# Test results as given in US6821774B1, “Compositions and methods for increasing cholesterol efflux and raising HDL using ATP binding cassette transporter ABC1” (CV Therapeutics, Inc., priority 1999, dated 2004).
# What was measured:
# Assay type in all cases: cell-based, mouse
# [1] = system: 5′ flanking region of ABC1; experiment: Luciferase reporter assay with ABC1 5′ flanking region constructs in RAW 264.7 cells; settings: wild-type sequence nucleotides 1080-1643; single ligand or both together
# Protocol: (§1) Luciferase Assay: Following transfection, the cells in each well were lysed in 70 μl of 1× cell lysis reagent (Promega, Madison, Wis., Cat. #E3971), subjected to one freeze-thaw cycle, and the lysate cleared by centrifugation for 5 minutes at 12,000 g. After centrifugation, 100 μl of luciferase assay reagent (Promega, Madison, Wis.; Cat. #E1501) was added to 10 μl of lysate. The luciferase activity of each lysate was measured as light units using a luminometer. Additionally, the β-galactosidase activity of each lysate was measured using the chemiluminescent assay reagents supplied in the Galacto-light kit according to the manufacturer's instructions (Tropix Inc., Bedford, Mass.: Cat. #BL100G). The normalized luciferase activity for each lysate was determined by dividing the luciferase activity value by the determined β-galactosidase value and reported as relative light units.
# Construction of Reporter Constructs: Reporter construct pAPR1 and control reporter construct pGL3-Basic were obtained as described in Example 15. […]
# Transfection of Reporter Constructs: The RAW 264.7 cells were maintained in culture and transfected with either pGL3-Basic (1 μg), pAPR1 (1 μg), or one of the other reporter constructs according to the method described in Example 15. […] The luciferase activity was measured and reported as relative light units as described in Example 15.
# ABC1 mRNA = ABC1 mRNA expression by RT-PCR in RAW 264.7 cells; settings: 10 μM, 24 hours, serum-free DMEM/BSA
# Protocol: RT-PCR: Quantitative PCR was carried out using the GeneAmp 5700 Sequence Detection System (Perkin-Elmer Applied Biosystems, Foster City, Calif.). Briefly, 500 ng of DNase-treated mRNA was reverse transcribed using random hexamer primers at 2.5 μM. Approximately 5% of this reaction was amplified by PCR using the SYBR green core kit (PE Applied Biosystems, Foster City, Calif.; Cat. #4304886) and human ABC1 primers LF: 5′-[…] (SEQ ID NO: 11) and LR: 5′-[…] (SEQ ID NO: 12) to yield an 82 bp fragment corresponding to nucleotides 7018-7099 of human ABC1. PCR cycle conditions were as follows: 10 minutes 95° C.; followed by 40 cycles of 95° C., 15 seconds; and 60° C., 60 secounds. The mRNA in each sample was quantitated by detecting the increase in fluorescence caused by SYBR green binding to the double-stranded amplification product generated during each PCR cycle. All samples were run in triplicate and normalized against β-actin mRNA, amplified in parallel reactions with primers actinF: 5′-[…] (SEQ ID NO: 54) and actinB: 5′-[…] […]
# Mouse RAW 264.7 cells were grown to subconfluence in DMEM/10% FBS and then treated for 24 hours in serum-free DMEM/BSA with either 9-cis retinoic acid (10 μM), 20-hydroxycholesterol (10 μM), or both ligands together (20 μM total). […] RNA was extracted, treated with DNase, and ABC1 mRNA measured by RT-PCR using PE Biosystems SYBR Green Technology as described in Example 9.
# RAW 264.7 cells = experiment: Apo A-I-mediated cholesterol efflux assay in cholesterol-loaded RAW 264.7 macrophage cells
# Protocol: To determine whether ligands for nuclear receptors affect the process of apolipoprotein-mediated cholesterol efflux, various ligands were tested using the apo A-I-mediated cholesterol efflux assay described in Example 12. The nuclear receptor superfamily includes several members, such as the liver receptor LXR, the retinoid receptor RXR, and the peroxisome proliferator-activated receptor PPAR, which have been implicated in lipid metabolism (Russell. D. W., Cell, 97:539-542 (1999); Spiegelman, B. W., Cell, 93:153-155 (1998); Janowski et al., Nature, 383:728-731 (1996)). […] Using the above-described assay, 9 cis-retinoic acid (RXR ligand), oxysterol (LXR ligand), and fenfibrate (PPAR ligand) was tested to determine the effect on cholesterol efflux.
# To determine whether eicosanoids affect the process of apolipoprotein-mediated cholesterol efflux, PGE1 and PG12 were tested using the apo A-I-mediated cholesterol efflux assay described in Example 12.
# ABC1 promoter = experiment: pAPR1 luciferase reporter assay (ABC1 promoter) in RAW 264.7 cells; settings: 24 hours
# Description: Construction of Reporter Plasmids: Plasmid pGL3-Basic (Promega, Madison, Wis.; Cat. #E1751) was used as a control plasmid containing the promoter less luciferase gene. The reporter construct containing the ABC1 promoter and luciferase gene was made by cloning a genomic fragment from the 5′ flanking region of the ABC1 gene (hAPR1 5′ promoter, corresponding to nucleotides 1080-1643 of SEQ ID NO: 3) into the SacI site of the GL3-Basic plasmid to generate plasmid GL-6a. Next, plasmid GL-6a was digested with SpeI and Acc65I. […]
# as §1, with “After centrifugation, 100 μl of luciferase assay reagent (Promega, Madison, Wis.; Cat. #E1501) was added to 10 μl of lysate.” left out, “units. […]” for “units.”
# [2] = system: mutated sterol response element of ABC1 5′ flanking region; experiment: Luciferase reporter assay with mutated sterol response element construct (nucleotides 1080-1643) in RAW 264.7 cells; settings: mutated sequence; oxysterol 10 μM
# Protocol: as §1
# Transfection of Reporter Constructs: The RAW 264.7 cells were maintained in culture and transfected with either pGL3-Basic (1 μg), pAPR1 (1 μg), or one of the other reporter constructs according to the method described in Example 15. […] The luciferase activity was measured and reported as relative light units as described in Example 15. […]
structure (smiles),measurement,setting,value
CC1=C(/C=C/C(C)=C\C=C\C(C)=C\C(=O)O)C(C)(C)CCC1 [9-cis retinoic acid],transcriptional response (luciferase activity),[1],produced a transcritional response
same,change in ABC1 mRNA expression,ABC1 mRNA,increase in ABC1 mRNA expression
same,increase in apoAI-induced cholesterol efflux,"RAW 264.7 cells; 30 ng/ml, cholesterol-loaded mouse macrophage cells",~3 fold
same,dose dependence of cholesterol efflux from macrophage cells,"RAW 264.7 cells; 0.3, 3.0 or 30 ng/ml",dose-dependent manner
same,cholesterol efflux,RAW 264.7 cells; apo A-I and 9 cis-retinoic acid 30 ng/ml,16%
same,cholesterol efflux counts,RAW 264.7 cells; apo A-I plus 0.3 ng/ml 9-cis-RA,1522 c.p.m.
same,cholesterol efflux counts,RAW 264.7 cells; apo A-I plus 3.0 ng/ml 9-cis-RA,3568 c.p.m.
same,cholesterol efflux counts,RAW 264.7 cells; apo A-I plus 30 ng/ml 9-cis-RA,8597 c.p.m.
same,increase in luciferase activity compared with EtOH control,ABC1 promoter; 9-cis RA 10 μM,16 fold
CC(C)CCC[C@](C)(O)[C@H]1CC[C@H]2[C@@H]3CC=C4C[C@@H](O)CC[C@]4(C)[C@H]3CC[C@@]21C [20(S)-hydroxycholesterol],transcriptional response (luciferase activity),[1],produced a transcritional response
same,transcriptional response (luciferase activity),[2],did not produce a transcriptional response
same,change in ABC1 mRNA expression,ABC1 mRNA,increase in ABC1 mRNA expression
same,increase in luciferase reporter activity compared with EtOH control,ABC1 promoter; 20(S) OH-chol 10 μM,19 fold
CC(C)CC[C@@H](O)[C@@H](C)[C@H]1CC[C@H]2[C@@H]3CC=C4C[C@@H](O)CC[C@]4(C)[C@H]3CC[C@]12C [22(R)-hydroxycholesterol],transcriptional response (luciferase activity),[2],did not produce a transcriptional response
same,increase in apoAI-induced cholesterol efflux,"RAW 264.7 cells; 5 μg/ml, cholesterol-loaded mouse macrophage cells",~3 fold
same,effect on cholesterol efflux (data not shown),"RAW 264.7 cells; similar assay, RAW 264.7 cells cholesterol-loaded for 48 hours",increase cholesterol efflux
"CCCCC[C@H](O)/C=C/[C@@H]1[C@H]2C/C(=C/CCCC(=O)O)O[C@H]2C[C@H]1O [PG12, prostacyclin]",increase in apoAI-induced cholesterol efflux,"RAW 264.7 cells; 25 nm, cholesterol-loaded mouse macrophage cells",~2 fold
same,cholesterol efflux,RAW 264.7 cells; apo A-I and PG12 25 nm,10%
"CCCCC[C@H](O)/C=C/[C@H]1[C@H](O)CC(=O)[C@@H]1CCCCCCC(=O)O [PGE1, prostaglandin E1]",increase in apoAI-induced cholesterol efflux,"RAW 264.7 cells; 25 nM, cholesterol-loaded mouse macrophage cells",~3 fold
same,cholesterol efflux,RAW 264.7 cells; apo A-I and PGE1 25 nM,15%
CC(C)OC(=O)C(C)(C)Oc1ccc(C(=O)c2ccc(Cl)cc2)cc1 [fenfibrate],increase in cholesterol efflux,"RAW 264.7 cells; 3 μg/ml, cholesterol-loaded mouse macrophage cells",~2 fold
same,cholesterol efflux,RAW 264.7 cells; apo A-I and fenfibrate 3 μg/ml,10%
